Read-outs that look alike come from different tables or passages of the source.
What was measured:
[1] = target: T1, SARS-CoV-2 main protease (M^pro) (Severe acute respiratory syndrome coronavirus 2, UniProt P0DTD1); experiment: biochemical
[2] = target: T1, SARS-CoV-2 main protease (M^pro); experiment: protein-observed mass spectrometry (POMS) under denaturing conditions, number of covalent reactions; type: binding; conditions: 40 μM compound, 2 μM M^pro, 20 mM HEPES, pH 7.5, 50 mM NaCl, covalent reactions with M^pro
[3] = target: T1, SARS-CoV-2 main protease (M^pro); experiment: biochemical; conditions: for IC50: […] substrate, pH 7.3, 15 min pre-incubation; for FRET pIC50 / apparent max. no. of reactions: ratio of FRET pIC50 to number of reactions observed by MS
[4] = M^pro (0.3 µM) incubated 15 min with compound, TSAVLQ/SGFRK-NH2 peptide (4 µM), 10 min reaction, read-out: SPE-MS pIC50 (converted)
[5] = 50 nM M^pro, read-out: FRET IC50
[6] = 50 nM M^pro, read-out: FRET pIC50 (converted)
[7] = M^pro (0.3 µM) incubated 15 min with compound, TSAVLQ/SGFRK-NH2 peptide (4 µM), 10 min reaction, read-out: SPE-MS IC50

Row | SMILES | IC50 [1, 4] [nM] | Apparent max. no. of reactions [2] | most dominant no. of reactions [2] | IC50 [3, 5] [nM] | IC50 [3, 6] [nM] | FRET pIC50 / apparent max. no. of reactions [3] | IC50 [1, 7] [nM] | other results
1 | CC(C)CCn1sc2ccccc2c1=O [Compound 4a] | 417 | 6 | 4 | ~320 | 316 | 1.1 | – | –
2 | O=c1c2ccccc2sn1-c1ccccc1 [Compound 3a] | – | 11/11 | 11/11 | ~130 | 129 | 0.6 | – | IC50 ([1]; read-out: SPE-MS pIC50 (converted)): 339 ± 69.8 nM; Apparent max. no. of reactions ([2]; listed as 3 a): 11; most dominant no. of reactions ([2]; listed as 3 a): 11
3 | COC(=O)Cn1c(=O)c2ccccc2[s+]1[O-] (stereo not drawn) [Compound 12] | – | – | – | 2830 ± 340 | – | – | 20100 ± 1120 | –
4 | O=c1c2cccc(Br)c2sn1-c1ccccc1 [Compound 3c] | – | completely prevents irreversible covalent reaction | – | – | – | – | 10900 ± 820 | –
5 | COCCn1sc2ccccc2c1=O [Compound 10] | – | 5 | 2 | – | – | 1.2 | – | IC50 [1]: 780 ± 180 nM; IC50 ([3]; FRET IC50, 50 nM M^pro): 950 ± 40 nM; IC50 ([3]; FRET pIC50, 50 nM M^pro): 776 nM
6 | O=C1C[C@H](Cn2sc3ccccc3c2=O)CN1 [Compound 9] | 2510 | – | – | 510 ± 20 | – | 2.1 | 2550 ± 570 | –
7 | O=c1c2ccccc2sn1Cc1ccccc1 [Compound 5] | 437 | 6 | 4 | – | 178 | 1.1 | 430 ± 30 | –
8 | O=c1c2ccccc2sn1CC1CCCCC1 [Compound 6] | – | 6 | 4 | – | 933 | 1.0 | 530 ± 50 | –
9 | O=c1c2ccccc2sn1-c1ccccn1 [Compound 8] | – | 6 | 2 | 220 ± 100 | 214 | 1.1 | 790 ± 90 | –
10 | O=c1[nH]sc2ccccc12 [Compound 2] | – | 6 | 2 | – | – | 1.0 | – | IC50 [1]: 990 ± 150 nM; IC50 ([3]; FRET IC50, 50 nM M^pro): 1510 ± 90 nM
11 | Cc1cccc2c(=O)n(CCC(C)C)sc12 [Compound 4b] | – | 0 | – | – | – | – | > 100000 | –
12 | CCCCCn1sc2ccccc2c1=O [Compound 7] | – | 5 | 4 | ~410 | 407 | 1.3 | 470 | –
13 | COC(=O)CCn1sc2ccccc2c1=O [Compound 11] | 389 ± 49.9 | 6 | 2 | – | 245 | 1.1 | – | –
14 | O=c1c2cc(Br)ccc2sn1-c1ccccc1 [Compound 3e] | 339 ± 19.9 | – | 1 | – | 30.9 | 3.8 | – | –
15 | CC(C)CCn1sc2ccc(Br)cc2c1=O [Compound 4d] | 339 | 2 | 0 | ~210 | 209 | 3.3 | 430 ± 10 | most dominant no. of reactions ([2]; listed as 4 d): no reaction
16 | O=c1c2cnccc2sn1-c1ccccc1 [Compound 3f] | 427 | 9 | 5 | – | – | 0.7 | – | –
17 | Cc1cccc2c(=O)n(-c3ccccc3)sc12 [Compound 3b] | – | 1 | 0 | – | – | – | > 100000 | –
18 | O=c1c2cccc(-c3ccccc3)c2sn1-c1ccccc1 [Compound 3d] | – | completely prevents irreversible covalent reaction | – | – | – | – | > 100000 | –
19 | CC(C)CCn1sc2c(Br)cccc2c1=O [Compound 4c] | – | completely prevents irreversible covalent reaction | – | – | 93300 | – | > 100000 | –
20 | O=c1c2ccccc2[se]n1-c1ccccc1 [Compound 1, ebselen, reference compound] | – | 12/12 | 12/12 | – | – | – | – | Apparent max. no. of reactions ([2]; listed as ebselen): up to 12
